According to patent US6545037B2, “Benzenesulfonamide compounds” (Les Laboratoires Servier, priority 2000, dated 2003):

Legend:
[1] = system: Platelet-rich plasma (PRP); assay: Platelet aggregation in man induced by the TXA2 agonist U46619; format: cell-based; conditions: human PRP, U46619 1 μM
Description: (§1) Platelet aggregation in man
(§2) Venous blood is obtained from human volunteers who have not taken aspirin for at least 14 days prior to the experiment. The blood is removed over sodium citrate (0.109 M) (1 vol. of citrate over 9 vol. of blood). Platelet-rich plasma (PRP) is obtained by centrifugation (20° C.) at 200 g for 10 minutes. The number of platelets is on average 250000 PL/mm^3. The PRP is stored at room temperature until the test and is used within 2 hours of having been taken. The TXA2 agonist U46619 is used at a concentration of 1 μM and 5-hydroxytryptamine is used at a concentration of 10 μM, the latter in the presence of 0.3 μM adenosine diphosphate and 1 μM adrenalin.
(§3) The values indicate that the compounds of the invention are powerful platelet anti-aggregants, which act in a balanced manner on the two activation routes, that of TXA2 and that of serotonin.

[2] = system: Platelet-rich plasma (PRP); assay: Platelet aggregation in man induced by 5-hydroxytryptamine; format: cell-based; conditions: human PRP, 5-hydroxytryptamine 10 μM in the presence of 0.3 μM adenosine diphosphate and 1 μM adrenalin, read-out: IC50, platelet aggregation produced by 5-hydroxytryptamine
Description: as §1, §2, §3

Compound O=C(O)CCc1cc(CCN2CCC(c3nsc4cc(F)ccc34)CC2)cc2c1CCC(NS(=O)(=O)c1ccc(Cl)cc1)C2 (centres unmarked) [Example 4, 3-(6-{[(4-Chlorophenyl)sulphonyl]amino}-3-{2-[4-(6-fluoro-1,2-benzisothiazol-3-yl)-1-piperidinyl]ethyl}-5,6,7,8-tetrahydro-1-naphthyl)propanoic acid] has an IC50 [1] of 0.17 µM and an IC50 [2] of 0.23 µM.
